{
  "source": "ChEMBL document CHEMBL1201862",
  "about": "“PubChem BioAssay data set” (2004)",
  "test_in_all_cases": "NCI tumour cell line growth inhibition, 48 h",
  "key": {"786-0": {"system": "786-0"}, "A498": {"system": "A498"}, "A549": {"system": "A549"}, "ACHN": {"system": "ACHN"}, "BT-549": {"system": "BT-549"}, "CAKI-1": {"system": "CAKI-1"}, "CCRF-CEM": {"system": "CCRF-CEM"}, "COLO 205": {"system": "COLO 205"}, "DU-145": {"system": "DU-145"}, "EKVX": {"system": "EKVX"}, "HCC 2998": {"system": "HCC 2998"}, "HCT-116": {"system": "HCT-116"}, "HCT-15": {"system": "HCT-15"}, "HL-60": {"system": "HL-60"}, "HOP-62": {"system": "HOP-62"}, "HOP-92": {"system": "HOP-92"}, "HT-29": {"system": "HT-29"}, "Hs-578T": {"system": "Hs-578T"}, "IGROV-1": {"system": "IGROV-1"}, "K562": {"system": "K562"}, "KM12": {"system": "KM12"}, "LOX IMVI": {"system": "LOX IMVI"}, "M14": {"system": "M14"}, "MCF7": {"system": "MCF7"}, "MDA-MB-231": {"system": "MDA-MB-231"}, "MDA-MB-435": {"system": "MDA-MB-435"}, "MOLT-4": {"system": "MOLT-4"}, "Malme-3M": {"system": "Malme-3M"}, "NCI-H226": {"system": "NCI-H226"}, "NCI-H23": {"system": "NCI-H23"}, "NCI-H460": {"system": "NCI-H460"}, "NCI-H522": {"system": "NCI-H522"}, "NCI/ADR-RES": {"system": "NCI/ADR-RES"}, "OVCAR-3": {"system": "OVCAR-3"}, "OVCAR-4": {"system": "OVCAR-4"}, "OVCAR-5": {"system": "OVCAR-5"}, "OVCAR-8": {"system": "OVCAR-8"}, "PC-3": {"system": "PC-3"}, "RPMI-8226": {"system": "RPMI-8226"}, "SF-295": {"system": "SF-295"}, "SF-539": {"system": "SF-539"}, "SK-MEL-28": {"system": "SK-MEL-28"}, "SK-MEL-2": {"system": "SK-MEL-2"}, "SK-MEL-5": {"system": "SK-MEL-5"}, "SK-OV-3": {"system": "SK-OV-3"}, "SN12C": {"system": "SN12C"}, "SNB-19": {"system": "SNB-19"}, "SNB-75": {"system": "SNB-75"}, "SR": {"system": "SR"}, "SW-620": {"system": "SW-620"}, "T47D": {"system": "T47D"}, "TK-10": {"system": "TK-10"}, "U-251": {"system": "U-251"}, "UACC-257": {"system": "UACC-257"}, "UACC-62": {"system": "UACC-62"}, "UO-31": {"system": "UO-31"}},
  "note": "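1) Cells in 96-well plates. 2) Compound, 48 h, 5 concentrations. 3) Linear interpolation between surrounding doses. 4) Unreached endpoint = highest concentration. Abbreviation: GI50, concentration required for 50% inhibition of growth.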 Active and inactive are the calls of the source. No stated cut-off is given here; in the data, active = GI50 up to about 1.1 µM and inactive = higher.",
  "data": [
    {"smiles": "COc1ccc(CN(Cc2ccc(OC)cc2)C(=O)CC2(O)CCc3ccccc3C2)cc1", "note": "(stereo unspecified)", "values": [
      {"measurement": "GI50", "setting": "786-0", "value": "> 100 µM (inactive)"},
      {"measurement": "GI50", "setting": "A498", "value": "> 100 µM (inactive)"},
      {"measurement": "GI50", "setting": "A549", "value": "30.1 µM (inactive)"},
      {"measurement": "GI50", "setting": "ACHN", "value": "49.8 µM (inactive)"},
      {"measurement": "GI50", "setting": "BT-549", "value": "> 100 µM (inactive)"},
      {"measurement": "GI50", "setting": "CAKI-1", "value": "43.2 µM (inactive)"},
      {"measurement": "GI50", "setting": "CCRF-CEM", "value": "16.6 µM (inactive)"},
      {"measurement": "GI50", "setting": "COLO 205", "value": "21.8 µM (inactive)"},
      {"measurement": "GI50", "setting": "DU-145", "value": "> 100 µM (inactive)"},
      {"measurement": "GI50", "setting": "EKVX", "value": "37.5 µM (inactive)"},
      {"measurement": "GI50", "setting": "HCC 2998", "value": "68.9 µM (inactive)"},
      {"measurement": "GI50", "setting": "HCT-116", "value": "38 µM (inactive)"},
      {"measurement": "GI50", "setting": "HCT-15", "value": 54.6, "unit": "µM"},
      {"measurement": "GI50", "setting": "HL-60", "value": "17.8 µM (inactive)"},
      {"measurement": "GI50", "setting": "HOP-62", "value": "> 100 µM (inactive)"},
      {"measurement": "GI50", "setting": "HOP-92", "value": "> 100 µM (inactive)"},
      {"measurement": "GI50", "setting": "HT-29", "value": "37.4 µM (inactive)"},
      {"measurement": "GI50", "setting": "Hs-578T", "value": "40.3 µM (inactive)"},
      {"measurement": "GI50", "setting": "IGROV-1", "value": "> 100 µM (inactive)"},
      {"measurement": "GI50", "setting": "K562", "value": "> 100 µM (inactive)"},
      {"measurement": "GI50", "setting": "KM12", "value": "26 µM (inactive)"},
      {"measurement": "GI50", "setting": "LOX IMVI", "value": "52.4 µM (inactive)"},
      {"measurement": "GI50", "setting": "M14", "value": "66.1 µM (inactive)"},
      {"measurement": "GI50", "setting": "MCF7", "value": "41.2 µM (inactive)"},
      {"measurement": "GI50", "setting": "MDA-MB-231", "value": "> 100 µM (inactive)"},
      {"measurement": "GI50", "setting": "MDA-MB-435", "value": "34.8 µM (inactive)"},
      {"measurement": "GI50", "setting": "MOLT-4", "value": "7.89 µM (inactive)"},
      {"measurement": "GI50", "setting": "Malme-3M", "value": "28.2 µM (inactive)"},
      {"measurement": "GI50", "setting": "NCI-H226", "value": "15.1 µM (inactive)"},
      {"measurement": "GI50", "setting": "NCI-H23", "value": "> 100 µM (inactive)"},
      {"measurement": "GI50", "setting": "NCI-H460", "value": "44 µM (inactive)"},
      {"measurement": "GI50", "setting": "NCI-H522", "value": "24 µM (inactive)"},
      {"measurement": "GI50", "setting": "NCI/ADR-RES", "value": "12.9 µM (inactive)"},
      {"measurement": "GI50", "setting": "OVCAR-3", "value": "> 100 µM (inactive)"},
      {"measurement": "GI50", "setting": "OVCAR-4", "value": "57 µM (inactive)"},
      {"measurement": "GI50", "setting": "OVCAR-5", "value": "> 100 µM (inactive)"},
      {"measurement": "GI50", "setting": "OVCAR-8", "value": "37 µM (inactive)"},
      {"measurement": "GI50", "setting": "PC-3", "value": "17.2 µM (inactive)"},
      {"measurement": "GI50", "setting": "RPMI-8226", "value": "62.2 µM (inactive)"},
      {"measurement": "GI50", "setting": "SF-295", "value": "27.1 µM (inactive)"},
      {"measurement": "GI50", "setting": "SF-539", "value": "> 100 µM (inactive)"},
      {"measurement": "GI50", "setting": "SK-MEL-28", "value": "> 100 µM (inactive)"},
      {"measurement": "GI50", "setting": "SK-MEL-2", "value": "60 µM (inactive)"},
      {"measurement": "GI50", "setting": "SK-MEL-5", "value": "28.8 µM (inactive)"},
      {"measurement": "GI50", "setting": "SK-OV-3", "value": "> 100 µM (inactive)"},
      {"measurement": "GI50", "setting": "SN12C", "value": "> 100 µM (inactive)"},
      {"measurement": "GI50", "setting": "SNB-19", "value": "> 100 µM (inactive)"},
      {"measurement": "GI50", "setting": "SNB-75", "value": "30.1 µM (inactive)"},
      {"measurement": "GI50", "setting": "SR", "value": "16 µM (inactive)"},
      {"measurement": "GI50", "setting": "SW-620", "value": "> 100 µM (inactive)"},
      {"measurement": "GI50", "setting": "T47D", "value": "8.71 µM (inactive)"},
      {"measurement": "GI50", "setting": "TK-10", "value": "> 100 µM (inactive)"},
      {"measurement": "GI50", "setting": "U-251", "value": "63.1 µM (inactive)"},
      {"measurement": "GI50", "setting": "UACC-257", "value": "42.8 µM (inactive)"},
      {"measurement": "GI50", "setting": "UACC-62", "value": "50.9 µM (inactive)"},
      {"measurement": "GI50", "setting": "UO-31", "value": "15.1 µM (inactive)"}
    ]}
  ]
}
